Experimental data reported in patent publication US8629102B2, “3-hydroxyisothiazole 1-oxide derivatives” (Mochida Pharmaceutical Co., Ltd., priority 2011, dated 2014).

Molecular target: T1, GPR40 of human origin (Homo sapiens, UniProt O14842)
T1 construct: expressed in transfected cells
Assay: Agonist action on GPR40 of human origin (intracellular Ca2+ change)
Assay type: cell-based
Conditions: CHO cell strain stably expressing GPR40 of human origin; change in Ca2+ concentration, fluorescent calcium indicator
Experimental: Pharmacological Test Example 1: Agonist Action on GPR40 of Human Origin
A CHO cell strain stably expressing GPR40 of human origin was used to determine the agonist action of a subject compound. This cell strain was seeded in a clear bottom 96 well plate at 4×10^4 cells/100 pt/well. The cell strain iswas cultured in a CO2 incubator overnight using a Ham's F-12 medium containing a 10% fetal bovine serum, 100 U/mL penicillin, 0.1 mg/mL streptomycin, and 400 μg/mL Geneticin. Calcium 4 Assay Kit (Molecular Devices) was used as a fluorescent calcium indicator. One mL of 77 mg/mL probenecid (Invitrogen) was added to 100 mL of a calcium indicator solution to prepare a solution (loading solution) mixed with a 20 mM HEPES-containing Hanks' balanced salt solution (HBSS) in equal proportions. To the cells from which the culture solution is removed, 200 μl of the loading solution was added, and the cells were cultured in a CO2 incubator for 1 hour. The subject compound was diluted with a 20 mM HEPES-containing HBSS and was added to the cells by 50 μL, and the change in the Ca^2+ concentration was measured with an intracellular ion analyzer. The EC50 value of the subject compound was calculated using the dose-response curve of fluorescence intensity variation.

T1 sequence (O14842 whole entry): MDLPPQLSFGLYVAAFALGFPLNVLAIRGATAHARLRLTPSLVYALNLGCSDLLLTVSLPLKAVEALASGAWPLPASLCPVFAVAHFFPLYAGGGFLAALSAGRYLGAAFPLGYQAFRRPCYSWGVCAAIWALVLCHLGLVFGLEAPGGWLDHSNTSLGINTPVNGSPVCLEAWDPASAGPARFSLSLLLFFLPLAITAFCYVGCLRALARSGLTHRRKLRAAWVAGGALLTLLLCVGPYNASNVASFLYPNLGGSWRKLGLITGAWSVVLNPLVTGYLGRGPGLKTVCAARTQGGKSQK

Structure (SMILES)	EC50
[O-][s+]1nc(O)cc1-c1ccc(O[C@@H]2CCc3c(-c4cc(C(F)(F)F)ccc4F)cccc32)cc1 (stereo partly drawn) [Example 67, 5-(4-(((R)-4-(2-fluoro-5-trifluoromethylphenyl)-2,3-dihydro-1H-inden-1-yl)oxy)phenyl)-3-hydroxyisothiazole 1-oxide]	< 300 nM
Cc1ccccc1Oc1cccc2c1CC[C@H]2Oc1ccc(-c2cc(O)n[s+]2[O-])cc1 (stereo partly drawn) [Example 95, 3-hydroxy-5-(4-(((R)-4-(o-tolyloxy)-2,3-dihydro-1H-inden-1-yl)oxy)phenyl)isothiazole 1-oxide]	< 300 nM
Cc1ccc(-c2cccc3c2CC[C@H]3Oc2ccc(-c3cc(O)n[s+]3[O-])cc2)cn1 (stereo partly drawn) [Example 71, 5-(4-(((R)-4-(6-methylpyridin-3-yl)-2,3-dihydro-1H-inden-1-yl)oxy)phenyl)-3-hydroxyisothiazole 1-oxide]	< 300 nM
CCOc1ccc(-c2cccc3c2CC[C@H]3Oc2ccc(-c3cc(O)n[s+]3[O-])cc2)cc1Cl (stereo partly drawn) [Example 60, 5-(4-(((R)-4-(3-chloro-4-ethoxyphenyl)-2,3-dihydro-1H-inden-1-yl)oxy)phenyl)-3-hydroxyisothiazole 1-oxide]	< 300 nM
COc1ccc(OC)c(-c2cccc3c2CC[C@H]3Oc2ccc(-c3cc(O)n[s+]3[O-])cc2)c1 (stereo partly drawn) [Example 54, 5-(4-(((R)-4-(2,5-dimethoxyphenyl)-2,3-dihydro-1H-inden-1-yl)oxy)phenyl)-3-hydroxyisothiazole 1-oxide]	< 300 nM
N#Cc1ccc(Oc2cccc3c2OCC3Oc2ccc(-c3cc(O)n[s+]3[O-])cc2)cc1 (single isomer, unassigned) [Example 144-a, 4-((3-(4-(3-hydroxy-1-oxidoisothiazol-5-yl)phenoxy)-2,3-dihydrobenzofuran-7-yl)oxy)benzonitrile]	< 300 nM
Cc1ccccc1-c1cccc2c1CC[C@H]2Oc1ccc(-c2cc(O)n[s+]2[O-])cc1 (stereo partly drawn) [Example 27, 5-(4-(((R)-4-(2-methylphenyl)-2,3-dihydro-1H-inden-1-yl)oxy)phenyl)-3-hydroxyisothiazole 1-oxide]	< 300 nM
CCOCCOc1ccc(Oc2cccc3c2CC[C@H]3Oc2ccc(-c3cc(O)n[s+]3[O-])cc2)cn1 (stereo partly drawn) [Example 98, 5-(4-(((R)-4-((6-(2-ethoxyethoxy)pyridin-3-yl)oxy)-2,3-dihydro-1H-inden-1-yl)oxy)phenyl)-3-hydroxyisothiazole 1-oxide]	< 300 nM

Results, then the molecule that gave them:

EC50	Structure (SMILES)
< 300 nM	Cc1cc(F)ccc1-c1cccc2c1CC[C@H]2Oc1ccc(-c2cc(O)n[s+]2[O-])cc1 (stereo partly drawn) [Example 39, 5-(4-(((R)-4-(4-fluoro-2-methylphenyl)-2,3-dihydro-1H-inden-1-yl)oxy)phenyl)-3-hydroxyisothiazole 1-oxide]
< 300 nM	[O-][s+]1nc(O)cc1-c1ccc(O[C@@H]2CCc3c(-c4cccc5ccccc45)cccc32)cc1 (single isomer, unassigned) [Example 35]
< 300 nM	COc1ccc(-c2cccc3c2CC[C@H]3Oc2ccc(-c3cc(O)n[s+]3[O-])cc2)cc1 (stereo partly drawn) [Example 23, 5-(4-(((R)-4-(4-methoxyphenyl)-2,3-dihydro-1H-inden-1-yl)oxy)phenyl)-3-hydroxyisothiazole 1-oxide]
300 to 3000 nM	[O-][s+]1nc(O)cc1-c1ccc(OCC2=CC3(CCCCC3)CCC2)cc1 (centres unmarked) [Example 120, 3-hydroxy-5-(4-(spiro[5.5]undec-1-en-2-ylmethoxy)phenyl)isothiazole 1-oxide]
< 300 nM	COc1ccc(Cl)c(-c2cccc3c2CC[C@H]3Oc2ccc(-c3cc(O)n[s+]3[O-])cc2)c1 (stereo partly drawn) [Example 52, 5-(4-(((R)-4-(2-chloro-5-methoxyphenyl)-2,3-dihydro-1H-inden-1-yl)oxy)phenyl)-3-hydroxyisothiazole 1-oxide]
< 300 nM	Cc1cc(OCCCS(C)(=O)=O)cc(C)c1-c1cccc2c1OCC2Oc1ccc(-c2cc(O)n[s+]2[O-])cc1 (single isomer, unassigned) [Example 151, 5-(4-((7-(2,6-dimethyl-4-(3-(methylsulfonyl)propoxy)phenyl)-2,3-dihydrobenzofuran-3-yl)oxy)phenyl)-3-hydroxyisothiazole 1-oxide]
